Test results from patent publication US20040023228A1, “System and method for analysing active ingredients designed to influence intra-cellular processes” (priority 2000, published 2004).

Tested on: tubulin
Experiment: FCS measurement of incorporation of rhodamine-labeled tubulin dimers into preformed microtubules (exchange kinetics in the assembly equilibrium)
Details: 10^−5M tubulin assembly mixture, 10^−9M rhodamine-labeled tubulin, 37° C.

| Structure (SMILES) | concentration up to which the action on the described kinetics can be tracked |
| --- | --- |
| COC(=O)Nc1nc2ccc(C(=O)c3cccs3)cc2[nH]1 [nocodazole] | 10^−11 M |
| CC(=O)O[C@H]1C(=O)[C@@]2(C)[C@H]([C@H](OC(=O)c3ccccc3)[C@]3(O)C[C@H](OC(=O)[C@H](O)[C@@H](NC(=O)c4ccccc4)c4ccccc4)C(C)=C1C3(C)C)[C@]1(OC(C)=O)CO[C@@H]1C[C@@H]2O [taxol, paclitaxel] | 10^−11 M |
